According to the NIST ThermoML archive (doi:10.1016/j.fluid.2019.01.028):
Numbers after ± are expanded uncertainties.

Assay: activity coefficient (dimensionless); of the first substance listed, at infinite dilution; xn = mol fraction of the nth substance listed
Conditions: Liquid, Chromatography, x1 = 0

Structure (SMILES)	activity coefficient (313 K)	activity coefficient (323 K)	activity coefficient (333 K)	activity coefficient (343 K)	activity coefficient (353 K)
Cc1ccc(C)o1 [2,5-dimethylfuran] + CCCC[n+]1ccn(C)c1.O=S(=O)([N-]S(=O)(=O)C(F)(F)F)C(F)(F)F	1.83 ± 0.16	1.85 ± 0.16	1.86 ± 0.16	1.88 ± 0.17	1.88 ± 0.17
Cc1ccc(C)o1 [2,5-dimethylfuran] + CCCCn1cc[n+](C)c1.[Cl-]	9.51 ± 0.87	9.6 ± 0.88	9.61 ± 0.88	9.64 ± 0.89	9.76 ± 0.9
CCc1ccco1 [2-ethylfuran] + CCCC[n+]1ccn(C)c1.O=S(=O)([N-]S(=O)(=O)C(F)(F)F)C(F)(F)F	1.47 ± 0.13	1.49 ± 0.13	1.51 ± 0.13	1.52 ± 0.13	1.54 ± 0.13
CCc1ccco1 [2-ethylfuran] + CCCCn1cc[n+](C)c1.[Cl-]	5.85 ± 0.54	6 ± 0.55	6.12 ± 0.56	6.23 ± 0.57	6.41 ± 0.59
Cc1ccco1 [2-methylfuran] + CCCC[n+]1ccn(C)c1.O=S(=O)([N-]S(=O)(=O)C(F)(F)F)C(F)(F)F	1.1 ± 0.09	1.12 ± 0.1	1.15 ± 0.1	1.17 ± 0.1	1.18 ± 0.1
Cc1ccco1 [2-methylfuran] + CCCCn1cc[n+](C)c1.[Cl-]	3.61 ± 0.33	3.76 ± 0.35	3.84 ± 0.35	3.96 ± 0.36	4.08 ± 0.37
c1ccccc1 [benzene] + CCCC[n+]1ccn(C)c1.O=S(=O)([N-]S(=O)(=O)C(F)(F)F)C(F)(F)F	0.938 ± 0.08	0.957 ± 0.081	0.975 ± 0.083	0.99 ± 0.084	1.01 ± 0.09
c1ccccc1 [benzene] + CCCCn1cc[n+](C)c1.[Cl-]	4.09 ± 0.38	4.14 ± 0.38	4.15 ± 0.38	4.15 ± 0.38	4.12 ± 0.38
Clc1ccccc1 [chlorobenzene] + CCCC[n+]1ccn(C)c1.O=S(=O)([N-]S(=O)(=O)C(F)(F)F)C(F)(F)F	1.5 ± 0.13	1.52 ± 0.13	1.53 ± 0.13	1.54 ± 0.13	1.54 ± 0.13
Clc1ccccc1 [chlorobenzene] + CCCCn1cc[n+](C)c1.[Cl-]	3.41 ± 0.31	3.58 ± 0.33	3.71 ± 0.34	3.82 ± 0.35	3.96 ± 0.36
CCO [ethanol] + CCCC[n+]1ccn(C)c1.O=S(=O)([N-]S(=O)(=O)C(F)(F)F)C(F)(F)F	1.6 ± 0.14	1.48 ± 0.13	1.37 ± 0.12	1.28 ± 0.11	1.2 ± 0.1
CCO [ethanol] + CCCCn1cc[n+](C)c1.[Cl-]	–	0.208 ± 0.032	0.213 ± 0.032	0.22 ± 0.032	0.229 ± 0.033
CCc1ccccc1 [ethylbenzene] + CCCC[n+]1ccn(C)c1.O=S(=O)([N-]S(=O)(=O)C(F)(F)F)C(F)(F)F	1.98 ± 0.18	2.01 ± 0.18	2.01 ± 0.18	2.05 ± 0.18	2.07 ± 0.18
CCc1ccccc1 [ethylbenzene] + CCCCn1cc[n+](C)c1.[Cl-]	12.5 ± 1.2	12.5 ± 1.2	12.4 ± 1.1	12.4 ± 1.1	12.4 ± 1.1
c1ccoc1 [furan] + CCCC[n+]1ccn(C)c1.O=S(=O)([N-]S(=O)(=O)C(F)(F)F)C(F)(F)F	0.678 ± 0.06	0.695 ± 0.061	0.711 ± 0.063	0.727 ± 0.064	0.739 ± 0.065
c1ccoc1 [furan] + CCCCn1cc[n+](C)c1.[Cl-]	1.41 ± 0.13	1.48 ± 0.13	1.56 ± 0.14	1.66 ± 0.15	1.75 ± 0.16
CO [methanol] + CCCC[n+]1ccn(C)c1.O=S(=O)([N-]S(=O)(=O)C(F)(F)F)C(F)(F)F	1.26 ± 0.11	1.21 ± 0.1	1.09 ± 0.09	1.06 ± 0.09	1.03 ± 0.09
CO [methanol] + CCCCn1cc[n+](C)c1.[Cl-]	–	0.1 ± 0.03	0.104 ± 0.03	0.109 ± 0.03	0.115 ± 0.03
CCCO [propan-1-ol] + CCCC[n+]1ccn(C)c1.O=S(=O)([N-]S(=O)(=O)C(F)(F)F)C(F)(F)F	1.94 ± 0.17	1.77 ± 0.16	1.63 ± 0.14	1.51 ± 0.13	1.4 ± 0.12
CCCO [propan-1-ol] + CCCCn1cc[n+](C)c1.[Cl-]	–	–	0.286 ± 0.035	0.292 ± 0.036	0.301 ± 0.036
Cc1ccccc1 [toluene] + CCCC[n+]1ccn(C)c1.O=S(=O)([N-]S(=O)(=O)C(F)(F)F)C(F)(F)F	1.31 ± 0.11	1.34 ± 0.12	1.37 ± 0.12	1.39 ± 0.12	1.42 ± 0.12
Cc1ccccc1 [toluene] + CCCCn1cc[n+](C)c1.[Cl-]	7.19 ± 0.66	7.24 ± 0.67	7.23 ± 0.66	7.3 ± 0.67	7.38 ± 0.68
